Measured values published in US20130209515A1, “ANTI-INFECTIVE AND IMMUNOMODULATORY COMPOUNDS” (priority 2005, published 2013).

Test system: mouse genes
Assay: Whole genome expression in blood of mice after 2AA (Affymetrix GeneChip)
Assay type: in vivo
Details: for Fold Change X14607 Lipocalin 2 / Fold Change AF220015 Rpt-1; regulatory protein, T lymphocyte 1 / Fold Change AF237910 Membrane-spanning 4-domains, subfamily A / Fold Change AI323359 Csfmr, colony stimulating factor IR, regulator of myeloid cell proliferation / Fold Change AI462015 Nuclear factor of kappa light chain gene enhancer in B-cells inhibitor, alpha / Fold Change AI648846 Solute carrier family 6 / Fold Change AV026617 FBJ osteosarcoma oncogene / Fold Change AV229143 Interferon activated gene (202A) / Fold Change AV318494 Myeloid cell leukemia sequence 1 / Fold Change BB193024 Interferon-induced transmembrane protein-2 / Fold Change BB241535 Suppressor of cytokine signaling 3 / Fold Change BB769628 Colony stimulating factor 2 receptor, beta 1 / Fold Change BB784999 Triggering receptor expressed on myeloid cells 1 / Fold Change BB831725 Suppressor of cytokine signaling 3 / Fold Change BC003839 Myeloid cell leukemia sequence 1 (Mcl1) / Fold Change BC010291 Interferon-inducible protein (Cd225) / Fold Change BC011092 Chemokine (C-C) receptor 1 / Fold Change BC011437 IL-1β / Fold Change BC012653 Chemokine (C-X3-C) receptor 1 / Fold Change BC021916 EMAPI, cytokine activity / Fold Change BC022943 Lymphocyte cytosolic protein 1 / Fold Change BE285634 Interleukin-1 receptor accessory protein / Fold Change NM_008039 Receptor activity [formyl peptide receptor, related sequence 2] (Fpr-rs2) / Fold Change NM_008677 p40phox; intracellular signaling cascade neutrophil cytosolic factor 4 (Ncf4) / Fold Change NM_008879 Pls2, L-fimbrin, calcium ion binding lymphocyte cytosolic proteing 1 (Lep 1) / Fold Change NM_009883 Nuclear factor induced by IL-6 (NF-IL6) / Fold Change NM_011087 Paired-Ig-like receptor A1 (Piral) / Fold Change NM_011313 Cacy; calcium binding protein A6 (calcyclin)cyclin-dependent protein kinase / Fold Change NM_011315 Saa-3 lipid transported activity acute phase response / Fold Change NM_011355 PU.1, transcription factor complex cell growth and/or maintenance / Fold Change NM_011940 Interferon-activatable protein (Ifi202) / Fold Change NM_011999 DCIR; C-type (calcium dependent, carbohydrate recognition domain) lectin / Fold Change NM_030691 Integral to membrane immunoglobulin superfamily, member 6 (Igsf6) / Fold Change NM_030694 Interferon-induced transmembrane protein-3 / Fold Change U05264 Glycoprotein 49B (Gp49b) / Fold Change U72644 Leukocyte specific transcript 1: blood
Experimental: To identify how 2AA pre-exposure promotes host defense to better protect against P. aeruginosa infection, we carried out whole genome gene expression studies of mice for several experimental conditions using the mouse full-thickness skin thermal injury infection model, including naïve; BI alone; 2AA treatment alone; 2AA pretreatment plus BI. The mice were injected IP, as we were not yet aware of the improved benefit obtained with IV delivery. Whole blood was collected after 0, 6, 24, 96 and 192 hr post 2AA injection. Also, pretreated BI mice were exposed to 2AA at 1 and 4 days pre-BI, with blood samples collected 24 hr post-BI. The transcriptome profiles were then determined and compared, and genes with statistically significant differences in their expression levels between the samples were further analyzed by pair-wise comparison (see experimental design, section 2.2).
In experiments to determine if T-aminoacetophenone acts as an immunomodulator, eight 6-week old CD-1 male mice were treated intraperitonialy with 500 μl of a 20 mM solution of T-aminoacetophenone in 0.9% NaCl (aq). A control group of mice was administered only 0.9% NaCl. Blood was withdrawn from the mice at time points of 6 hours, 24 hours, 96 hours, and 192 hours, and RNA was extracted from each blood sample.
Mouse GeneChip™ arrays, manufactured by Affymetrix (Santa Clara, Calif.), were used to compare the profile of gene expression in the blood samples of mice. The biotin-labeled cRNA used to hybridize to the GeneChips was prepared from the RNA extracted from the blood samples according to the Affymetrix GeneChip Expression Analysis Technical Manual (Research Genetics, Huntsville, Ala.).
The expression profiles from treated and untreated mice were compared and an additional constraint of a minimum expression ratio of 1 was applied to control false positives to 5%. The gene list was clustered and the genes showing upregulation at any of the time points considered were selected. […] Most of the genes listed in the table function in immune response or host-pathogen interaction. The table includes several cytokines and their receptors, genes involved in immune cell proliferation, and calcium-binding proteins that have a role in downstream signaling.

In the case of `CC(=O)c1ccccc1N` [2AA, 2′-aminoacetophenone], the “Fold Change X14607 Lipocalin 2” value (24 h after IP 2AA) is reported as 0.2 fold, the “Fold Change AF220015 Rpt-1; regulatory protein, T lymphocyte 1” value (96 h after IP 2AA) is reported as 0.5 fold and the “Fold Change AF237910 Membrane-spanning 4-domains, subfamily A” value (96 h after IP 2AA) is reported as 0.0 fold. The “Fold Change AI323359 Csfmr, colony stimulating factor IR, regulator of myeloid cell proliferation” value (96 h after IP 2AA) was 0.0 fold, the “Fold Change AI462015 Nuclear factor of kappa light chain gene enhancer in B-cells inhibitor, alpha” value (96 h after IP 2AA) was 0.4 fold and the “Fold Change AI648846 Solute carrier family 6” value (96 h after IP 2AA) was 3.7 fold. The “Fold Change AV026617 FBJ osteosarcoma oncogene” value (96 h after IP 2AA) was 0.0 fold, the “Fold Change AV229143 Interferon activated gene (202A)” value (96 h after IP 2AA) was 6.8 fold and the “Fold Change AV318494 Myeloid cell leukemia sequence 1” value (96 h after IP 2AA) was 0.3 fold. For the same molecule, the “Fold Change BB193024 Interferon-induced transmembrane protein-2” value (96 h after IP 2AA) was 0.1 fold, the “Fold Change BB241535 Suppressor of cytokine signaling 3” value (96 h after IP 2AA) was 0.3 fold and the “Fold Change BB769628 Colony stimulating factor 2 receptor, beta 1” value (96 h after IP 2AA) was 3.2 fold. The “Fold Change BB784999 Triggering receptor expressed on myeloid cells 1” value (96 h after IP 2AA) was 4.6 fold, the “Fold Change BB831725 Suppressor of cytokine signaling 3” value (96 h after IP 2AA) was 2.0 fold and the “Fold Change BC003839 Myeloid cell leukemia sequence 1 (Mcl1)” value (96 h after IP 2AA) was −0.4 fold. The “Fold Change BC010291 Interferon-inducible protein (Cd225)” value (96 h after IP 2AA) was −0.3 fold, the “Fold Change BC011092 Chemokine (C-C) receptor 1” value (96 h after IP 2AA) was −0.7 fold and the “Fold Change BC011437 IL-1β” value (96 h after IP 2AA) was 0.2 fold. For the same molecule, the “Fold Change BC012653 Chemokine (C-X3-C) receptor 1” value (96 h after IP 2AA) was 0.0 fold, the “Fold Change BC021916 EMAPI, cytokine activity” value (96 h after IP 2AA) was −0.3 fold and the “Fold Change BC022943 Lymphocyte cytosolic protein 1” value (96 h after IP 2AA) was −0.4 fold. The “Fold Change BE285634 Interleukin-1 receptor accessory protein” value (96 h after IP 2AA) was −1.1 fold, the “Fold Change NM_008039 Receptor activity [formyl peptide receptor, related sequence 2] (Fpr-rs2)” value (96 h after IP 2AA) was 0.2 fold and the “Fold Change NM_008677 p40phox; intracellular signaling cascade neutrophil cytosolic factor 4 (Ncf4)” value (96 h after IP 2AA) was 0.0 fold. For the same molecule, the “Fold Change NM_008879 Pls2, L-fimbrin, calcium ion binding lymphocyte cytosolic proteing 1 (Lep 1)” value (96 h after IP 2AA) was 0.0 fold, the “Fold Change NM_009883 Nuclear factor induced by IL-6 (NF-IL6)” value (96 h after IP 2AA) was −0.1 fold and the “Fold Change NM_011087 Paired-Ig-like receptor A1 (Piral)” value (96 h after IP 2AA) was 0.2 fold. For the same molecule, the “Fold Change NM_011313 Cacy; calcium binding protein A6 (calcyclin)cyclin-dependent protein kinase” value (96 h after IP 2AA) was 0.5 fold, the “Fold Change NM_011315 Saa-3 lipid transported activity acute phase response” value (96 h after IP 2AA) was 1.5 fold and the “Fold Change NM_011355 PU.1, transcription factor complex cell growth and/or maintenance” value (96 h after IP 2AA) was 9.2 fold. For the same molecule, the “Fold Change NM_011940 Interferon-activatable protein (Ifi202)” value (96 h after IP 2AA) was 9.4 fold, the “Fold Change NM_011999 DCIR; C-type (calcium dependent, carbohydrate recognition domain) lectin” value (96 h after IP 2AA) was 5.3 fold and the “Fold Change NM_030691 Integral to membrane immunoglobulin superfamily, member 6 (Igsf6)” value (96 h after IP 2AA) was 0.0 fold. The “Fold Change NM_030694 Interferon-induced transmembrane protein-3” value (96 h after IP 2AA) was 0.2 fold, the “Fold Change U05264 Glycoprotein 49B (Gp49b)” value (96 h after IP 2AA) was 0.6 fold and the “Fold Change U72644 Leukocyte specific transcript 1” value (96 h after IP 2AA) was −0.2 fold. For the same molecule, the “Fold Change X14607 Lipocalin 2” value (96 h after IP 2AA) was 0.2 fold, the “Fold Change AF220015 Rpt-1; regulatory protein, T lymphocyte 1” value (192 h after IP 2AA) was 0.6 fold and the “Fold Change AF237910 Membrane-spanning 4-domains, subfamily A” value (192 h after IP 2AA) was 0.5 fold. For the same molecule, the “Fold Change AI323359 Csfmr, colony stimulating factor IR, regulator of myeloid cell proliferation” value (192 h after IP 2AA) was 0.3 fold, the “Fold Change AI462015 Nuclear factor of kappa light chain gene enhancer in B-cells inhibitor, alpha” value (192 h after IP 2AA) was 0.7 fold and the “Fold Change AI648846 Solute carrier family 6” value (192 h after IP 2AA) was 7.8 fold. For the same molecule, the “Fold Change AV026617 FBJ osteosarcoma oncogene” value (192 h after IP 2AA) was 10.5 fold, the “Fold Change AV229143 Interferon activated gene (202A)” value (192 h after IP 2AA) was 6.2 fold and the “Fold Change AV318494 Myeloid cell leukemia sequence 1” value (192 h after IP 2AA) was 1.2 fold. For the same molecule, the “Fold Change BB193024 Interferon-induced transmembrane protein-2” value (192 h after IP 2AA) was 0.3 fold, the “Fold Change BB241535 Suppressor of cytokine signaling 3” value (192 h after IP 2AA) was 1.0 fold and the “Fold Change BB769628 Colony stimulating factor 2 receptor, beta 1” value (192 h after IP 2AA) was 5.2 fold. The “Fold Change BB784999 Triggering receptor expressed on myeloid cells 1” value (192 h after IP 2AA) was 0.0 fold, the “Fold Change BB831725 Suppressor of cytokine signaling 3” value (192 h after IP 2AA) was 5.9 fold and the “Fold Change BC003839 Myeloid cell leukemia sequence 1 (Mcl1)” value (192 h after IP 2AA) was 0.1 fold. The “Fold Change BC010291 Interferon-inducible protein (Cd225)” value (192 h after IP 2AA) was −0.3 fold, the “Fold Change BC011092 Chemokine (C-C) receptor 1” value (192 h after IP 2AA) was −0.3 fold and the “Fold Change BC011437 IL-1β” value (192 h after IP 2AA) was 0.6 fold. The “Fold Change BC012653 Chemokine (C-X3-C) receptor 1” value (192 h after IP 2AA) was 0.0 fold, the “Fold Change BC021916 EMAPI, cytokine activity” value (192 h after IP 2AA) was −0.2 fold and the “Fold Change BC022943 Lymphocyte cytosolic protein 1” value (192 h after IP 2AA) was −0.1 fold. The “Fold Change BE285634 Interleukin-1 receptor accessory protein” value (192 h after IP 2AA) was −0.2 fold, the “Fold Change NM_008039 Receptor activity [formyl peptide receptor, related sequence 2] (Fpr-rs2)” value (192 h after IP 2AA) was 0.2 fold and the “Fold Change NM_008677 p40phox; intracellular signaling cascade neutrophil cytosolic factor 4 (Ncf4)” value (192 h after IP 2AA) was 0.1 fold. For the same molecule, the “Fold Change NM_008879 Pls2, L-fimbrin, calcium ion binding lymphocyte cytosolic proteing 1 (Lep 1)” value (192 h after IP 2AA) was 0.0 fold, the “Fold Change NM_009883 Nuclear factor induced by IL-6 (NF-IL6)” value (192 h after IP 2AA) was −0.1 fold and the “Fold Change NM_011087 Paired-Ig-like receptor A1 (Piral)” value (192 h after IP 2AA) was 0.1 fold. For the same molecule, the “Fold Change NM_011313 Cacy; calcium binding protein A6 (calcyclin)cyclin-dependent protein kinase” value (192 h after IP 2AA) was 1.4 fold, the “Fold Change NM_011315 Saa-3 lipid transported activity acute phase response” value (192 h after IP 2AA) was −0.2 fold and the “Fold Change NM_011355 PU.1, transcription factor complex cell growth and/or maintenance” value (192 h after IP 2AA) was 6.0 fold. For the same molecule, the “Fold Change NM_011940 Interferon-activatable protein (Ifi202)” value (192 h after IP 2AA) was 9.1 fold, the “Fold Change NM_011999 DCIR; C-type (calcium dependent, carbohydrate recognition domain) lectin” value (192 h after IP 2AA) was 9.6 fold and the “Fold Change NM_030691 Integral to membrane immunoglobulin superfamily, member 6 (Igsf6)” value (192 h after IP 2AA) was 5.6 fold. The “Fold Change NM_030694 Interferon-induced transmembrane protein-3” value (192 h after IP 2AA) was 0.6 fold, the “Fold Change U05264 Glycoprotein 49B (Gp49b)” value (192 h after IP 2AA) was 0.9 fold and the “Fold Change U72644 Leukocyte specific transcript 1” value (192 h after IP 2AA) was 0.1 fold. The “Fold Change X14607 Lipocalin 2” value (192 h after IP 2AA) was 0.2 fold, the “genes with >2× expression differences at least at one point vs control mice” value (IP 2AA, blood 0, 6, 24, 96, 192 hr) was 835 genes and the “genes involved in the P38 MAPK pathway induced” value (post-2AA treatment) was 7/8.
